In patent US11319344B2, “Non-membrane disruptive P53 activating stapled peptides” (AGENCY FOR SCIENCE, TECHNOLOGY AND RESEARCH, priority 2015, dated 2022):
Read-outs that look alike come from different tables or passages of the source.

Tests used:
[1] = system: ARN8 cells; assay: Lactate dehydrogenase release assay, ARN8 cells; format: cell-based; conditions: 2 h, serum free
Protocol: (§1) The stapled YS-01/04 peptides were also screened for their ability to perturb the cell membrane wall of T22 and ARN8 cells and release cytosolic lactate dehydrogenase (LDH). An effect that is regarded as undesirable as this may indicate that the peptide is non-specifically toxic to different cell types. A short 2 hour time treatment period is used for this assay as it is assumed that perforation of the cell membrane occurs […] for cell programmed death. […] The lactate dehydrogenase leakage measured was much greater in ARN8 cells than T22 cells, showing that different cells vary in their sensitivities to the membrane disruptive properties of YS-03. […] This implies that p53 activation, which is also supported by the data for YS-04, does occur in the absence of membrane disruption and that the biological activity observed for is not a direct consequence of cellular toxicity.
(§2) T22 cells or ARN8 cells, both of which were stably transfected with a p53 responsive β-galactosidase reporter, were seeded into a 96-well plate at a cell density of 5000 cells per well. Cells were also maintained in Dulbecco's Minimal Eagle Medium (DMEM) with 10% fetal bovine serum (FBS) and penicillin/streptomycin. The cells were incubated for 24 hours and then treated with compounds/peptide for 2 hours in DMEM with or without 10% FBS. Cytosolic lactate dehydrogenase release was detected using the non-radioactive cytotoxicity Assay kit (Promega) as per manufacturer's instructions. Measurements were carried out using an Envision multiplate reader.

[2] = system: p53 transcriptional activity in ARN8 cells; assay: ARN8 β-galactosidase based p53 reporter assay; format: cell-based, Human; conditions: serum free, 18 h
Protocol: ARN8 cells contain the same β-galactosidase gene under the control of a p53 promoter that is stably transfected into T22 cells. […] The YS-07 and YS-09 titrations were again repeated and the lactate dehydrogenase leakage from ARN8 cells measured instead (FIGS. 8c and 8d).
(§3) ARN8 cells, which were stably transfected with a p53 responsive β-galactosidase reporter, were seeded into 96-well plate at a cell density of 8000 cells per well. Cells were also maintained in Dulbecco's Minimal Eagle Medium (DMEM) with 10% fetal bovine serum (FBS) and penicillin/streptomycin. […] Measurements were carried out using a Safire II multiplate reader. Experiments were carried out independently twice.

[3] = system: p53 transcriptional activity in T22 cells; assay: T22 p53 β-galactosidase based reporter assay; format: cell-based, murine; conditions: for IC50: T22 p53 reporter assay, 18 h
Protocol: The YS-01/04 peptides were screened in a murine T22-derived p53 reporter assay, either with or without fetal calf serum, to assess their ability to induce p53 transcriptional activity in intact cells (Table 1 and FIG. 3).
as §3, with “T22” for “ARN8”

[4] = system: T22 cells; assay: Lactate dehydrogenase release assay, T22 cells; format: cell-based; conditions: 2 h, serum free
Protocol: as §1, §2

[5] = system: p53 and Mdm2 protein levels in T22 cells; assay: T22 western blot analysis of p53 and Mdm2 protein levels; format: cell-based, Murine; conditions: 25 μM and 50 μM, 18 h, with or without fetal calf serum
Excerpt: The YS-01/04 peptides were screened in a murine T22-derived p53 reporter assay, either with or without fetal calf serum, to assess their ability to induce p53 transcriptional activity in intact cells (Table 1 and FIG. 3). […] Considering the similar affinities that these peptides have for Mdm2, the difference in their IC50 values must reflect a change in their ability to enter the cell. This difference is observed for both sets of peptides (YS-01 and YS-02, YS-03 and YS-04, FIG. 3), which implies that the hydroxyl group of the C-terminal Y30 is responsible for the reduced efficiency of intracellular uptake. p53 and Mdm2 protein levels were then directly probed using western blot analysis. T22 cells were treated with 25 μM and 50 μM of YS-03 either with or without the presence of fetal calf serum (FIG. 4).
T22 Murine cells were seeded into 12 well plates at a cell density of 150000 cells per well and incubated overnight. Cells were also maintained in DMEM media with 10% fetal bovine serum (FBS) and penicillin/streptomycin. Cells were treated with various compounds/vehicle controls at the time points and concentrations indicated either in DMEM media with or without 10% FBS. Cells were rinsed with PBS and then harvested in 50 μl of 1×NuPAGE LDS sample buffer (NP0008). […] Protein concentrations were measured by BCA assay. […]

[6] = Circular dichroism spectroscopy (helicity in solution); format: physicochemical; conditions: peptide unbound in solution
[7] = molecular target: N-terminal domain of Mdm2 (1-125) (Homo sapiens, UniProt Q00987); assay: Competitive fluorescence anisotropy titration (apparent Kd); conditions: ratio to YS-01/YS-02 Kd
Protocol: In this assay, a N-terminally FAM labelled peptide of the sequence [sequence]
The cells expressing the Mdm2 GST fusion construct were grown in LB medium at 37° C. to an OD600 of ˜0.6 and induction was carried out with 1 mM isopropyl β-D-1-thiogalactopyranoside (IPTG) at room temperature. Cells were harvested by centrifugation and the cell pellets were resuspended in 50 mM Tris pH 8.0, 10% sucrose and then sonicated. The sonicated sample was centrifuged for 60 minutes at 17,000 g at 4° C. […] The column was then further washed by 6 volumes of wash buffer. Mdm2 were then purified from the column by cleavage with PreScission protease. 10 units of PreScission protease, in one column volume of PBS with 1 mM DTT buffer, were injected onto the column. The cleavage reaction was allowed to proceed overnight at 4° C. The cleaved protein was then eluted of the column with wash buffer. Protein fractions were analysed with SDS-PAGE and concentrated using a Centricon (3.5 kDa molecular weight cut-off (MWCO)) concentrator. The Mdm2 protein sample was then dialyzed into a buffer solution containing 20 mM Bis-Tris, pH 6.5, 0.05M NaCl with 1 mM DTT and loaded onto a monoS column pre-equilibrated in buffer A (20 mM Bis-Tris, pH 6.5, 1 mM DTT). The column was then washed in 6 column volumes of buffer A and bound protein was eluted with a linear gradient of 1M NaCl over 25 column volumes. Protein fractions were analysed with sodium dodecyl sulfate-polyacrylamide gel electrophoresis (SDS-PAGE) and concentrated using a Centricon (3.5 kDa molecular weight cut-off (MWCO)) concentrator.
Apparent dissociation constant (Kd) values were determined for a variety of molecules via competitive fluorescence anisotropy experiments. […] The competing molecules were then titrated against the complex of the FAM labelled peptide and protein. Apparent dissociation constant (Kd) values were determined by fitting the experimental data to the equations shown below:
[L]st and [L]t denote labelled ligand and total unlabelled ligand input concentrations, respectively. Kd2 is the dissociation constant of the interaction between the unlabelled ligand and the protein. In all competitive types of experiments, it is assumed that [P]t>[L]st, otherwise considerable amounts of free labelled ligand would always be present and would interfere with measurements. […] The FAM-labelled peptide was dissolved in dimethyl sulfoxide (DMSO) at 1 mM and diluted into experimental buffer. Readings were carried out with a Envision Multilabel Reader. […] All titrations were carried out in triplicate. Curve-fitting was carried out using Prism 4.0 (GraphPad). […]

[8] = absence of serum, read-out: T22 IC50 (0% μM)
[9] = presence of 10% fetal calf serum, read-out: T22 Ic50 (10% μM)

Chain of N-terminal domain of Mdm2 (1-125) (Q00987 1-125): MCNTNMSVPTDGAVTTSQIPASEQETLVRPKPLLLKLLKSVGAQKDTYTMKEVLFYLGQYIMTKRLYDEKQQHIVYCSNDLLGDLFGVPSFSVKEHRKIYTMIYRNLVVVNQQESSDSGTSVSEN

Kd weaker than the i,i+4 analogue peptides (YS-01 and YS-02) [7] | Compound | cytosolic lactate dehydrogenase (LDH) release [1] | p53 activation (β-galactosidase activity) in ARN8 cells [2] | IC50 [3, 8] [µM] | IC50 [3, 9] [µM] | cytosolic lactate dehydrogenase (LDH) release [4] | p53 and Mdm2 protein levels (western blot) [5] | helicity in solution (CD spectra) [6] | ability to induce p53 activity in T22 reporter assay ([3]; with and without serum)
– | CC(=O)N[C@H](C(=O)N[C@@H](CO)C(=O)N[C@@H](Cc1ccccc1)C(=O)N[C@]1(C)CCCCCCC=CCCC[C@@](C)(C(N)=O)NC(=O)[C@H](CC(C)C)NC(=O)[C@H](CC(C)C)NC(=O)[C@H](C)NC(=O)[C@H](Cc2c[nH]c3ccccc23)NC(=O)[C@H](Cc2ccc(O)cc2)NC(=O)[C@H](CCC(=O)O)NC1=O)[C@@H](C)O [sMTide-02, Ac-TSFX8EYWALLS5-NH2, reference compound] | large amounts of lactate dehydrogenase leakage | poorly induces p53 activity | 2.75 | 17.9 | significant amounts of lactate dehydrogenase leakage | – | – | –
approximately 2 fold | CC(=O)N[C@H](C(=O)N[C@@H](CO)C(=O)N[C@@H](Cc1ccccc1)C(=O)NC1(C)CCCCCCC=CCCCC(C)(C(=O)N[C@@H](CCC(=O)O)C(=O)N[C@@H](CC(N)=O)C(=O)N[C@@H](Cc2ccccc2)C(N)=O)NC(=O)[C@H](CC(C)C)NC(=O)[C@H](CC(C)C)NC(=O)[C@H](C)NC(=O)[C@H](Cc2c[nH]c3ccccc23)NC(=O)[C@H](Cc2ccc(O)cc2)NC(=O)[C@H](CCC(=O)O)NC1=O)[C@@H](C)O (some centres unmarked) [YS-03, Ac-^17TSFX8EYWALLS5ENF^30-NH2] | – | – | 4.57 | 54.7 | – | induction of p53 and Mdm2 protein levels | significantly more helical in character in solution than YS-01 and YS-02 | greater potency in the T22 assay than YS-01 and YS-02
